What follows are compounds tested against T1, stearoyl-CoA desaturase (SCD) (Mus musculus, UniProt P13516) (assay: Stearoyl-CoA desaturase inhibition using mouse liver microsomes (HTS microsomal assay, IC50 follow-up)). Conditions: % SCD enzyme activity remaining at 10 μM test compound.
T1 sequence (P13516 1-355): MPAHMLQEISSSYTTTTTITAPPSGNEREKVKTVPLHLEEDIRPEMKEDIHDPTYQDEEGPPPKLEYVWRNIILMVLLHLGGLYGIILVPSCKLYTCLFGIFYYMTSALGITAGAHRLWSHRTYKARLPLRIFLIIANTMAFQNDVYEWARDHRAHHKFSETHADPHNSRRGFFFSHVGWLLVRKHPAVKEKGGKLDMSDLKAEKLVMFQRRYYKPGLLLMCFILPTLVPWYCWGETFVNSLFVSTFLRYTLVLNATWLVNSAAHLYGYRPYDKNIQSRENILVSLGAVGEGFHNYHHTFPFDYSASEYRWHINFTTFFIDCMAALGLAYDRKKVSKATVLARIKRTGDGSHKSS
Procedure: Livers are immediately rinsed with cold 0.9% NaCl solution, weighed and minced with scissors. All procedures are performed at 4° C. unless specified otherwise. Livers are homogenized in a solution (1:3 w/v) containing 0.25 M sucrose, 62 mM potassium phosphate buffer (pH 7.0), 0.15 M KCl, 1.5 mM N-acetyleysteine, 5 mM MgCl2, and 0.1 mM EDTA using 4 strokes of a Potter-Elvehjem tissue homogenizer. The homogenate is centrifuged at 10,400×g for 20 min to eliminate mitochondria and cellular debris. The supernatant is filtered through a 3-layer cheesecloth and centrifuged at 105,000×g for 60 min. The microsomal pellet is gently resuspended in the same homogenization solution with a small glass/teflon homogenizer and stored at −70° C. The absence of mitochondrial contamination is enzymatically assessed. The protein concentration is measured using bovine serum albumin as the standard.
The tubes are vortexed vigorously and after 15 min incubation in a shaking water bath (37° C.), the reactions are stopped and fatty acids are analyzed.
Fatty acids are analyzed as follows: The reaction mixture is saponified with 10% KOH to obtain free fatty acids which are further methylated using BF3 in methanol. […] Fatty acid methyl esters are separated isocratically with acetonitrile/water (95:5 v:v) at a flow rate of 1 mL/min and are identified by comparison with authentic standards.
The compounds are analyzed with an HTS microsomal assay. The activities are defined in terms of % SCD enzyme activity remaining at the selected concentration (e.g., 10 μM) of the test compounds.

Mouse Microsome 10% remaining @ 10 μM [%]	SMILES
15	CC(C)CCNC(=O)c1ccc(N2CCN(C(=O)c3cnn(C)c3C(F)(F)F)CC2)nn1 [6-[4-(1-METHYL-5-TRIFLUOROMETHYL-1H-PYRAZOLE-4-CARBONYL)PIPERAZIN-1-YL]-PYRIDAZINE-3-CARBOXYLIC ACID (3-METHYLBUTYL)AMIDE]
26	CC(C)CCNC(=O)c1ccc(N2CCN(C(=O)C3(C(F)(F)F)CC3)CC2)nn1 [6-[4-(1-TRIFLUOROMETHYLCYCLOPROPANECARBONYL)PIPERAZIN-1-YL]-PYRIDAZINE-3-CARBOXYLIC ACID (3-METHYLBUTYL)AMIDE]
11	O=C(NCCC1CC1)c1ccc(N2CCN(Cc3ccc(F)cc3Cl)CC2)nn1 [6-[4-(2-CHLORO-4-FLUOROBENZYL)PIPERAZIN-1-YL]PYRIDAZINE-3-CARBOXYLIC ACID (2-CYCLOPROPYLETHYL)AMIDE]
61	CC(C)CCNC(=O)c1ccc(N2CCN(C(=O)c3c(C(F)(F)F)nnn3Cc3ccccc3)CC2)nn1 [6-[4-(3-BENZYL-5-TRIFLUOROMETHYL-3H-[1,2,3]TRIAZOLE-4-CARBONYL)PIPERAZIN-1-YL]PYRIDAZINE-3-CARBOXYLIC ACID (3-METHYLBUTYL)AMIDE]
8	O=C(NCCCC1CC1)c1ccc(N2CCN(Cc3cc(F)ccc3C(F)(F)F)CC2)nn1 [6-[4-(5-FLUORO-2-TRIFLUOROMETHYLBENZYL)PIPERAZIN-1-YL]PYRIDAZINE-3-CARBOXYLIC ACID (3-CYCLOPROPYLPROPYL)AMIDE]
6	O=C(NCc1ccc(F)cc1)Nc1ccc(N2CCN(C(=O)c3ccccc3C(F)(F)F)CC2)nn1 [1-(4-FLUOROBENZYL)-3-{6-[4-(2-TRIFLUOROMETHYLBENZOYL)PIPERAZIN-1-YL]-PYRIDAZIN-3-YL}UREA]
8	CC(C)CCNC(=O)c1ccc(N2CCN(C(=O)c3ccccc3[N+](=O)[O-])CC2)nn1 [6-[4-(2-NITROBENZOYL)PIPERAZIN-1-YL]PYRIDAZINE-3-CARBOXYLIC ACID (3-METHYLBUTYL)AMIDE]
42	CC(C)CCNC(=O)c1ccc(N2CCN(C(=O)CCC(F)(F)F)CC2)nn1 [6-[4-(4,4,4-TRIFLUOROBUTYRYL)PIPERAZIN-1-YL]PYRIDAZINE-3-CARBOXYLIC ACID (3-METHYLBUTYL)AMIDE]
8	O=C(NCc1ccccc1)Nc1ccc(N2CCN(C(=O)c3ccccc3C(F)(F)F)CC2)nn1 [1-BENZYL-3-{6-[4-(2-TRIFLUOROMETHYLBENZOYL)PIPERAZIN-1-YL]PYRIDAZIN-3-YL}UREA]
18	CCOC(=O)CCNC(=O)Nc1ccc(N2CCN(C(=O)c3ccccc3C(F)(F)F)CC2)nn1 [3-(3-{6-[4-(2-TRIFLUOROMETHYLBENZOYL)PIPERAZIN-1-YL]-PYRIDAZIN-3-YL}-UREIDO)PROPIONIC ACID ETHYL ESTER]
3	O=C(NCCC1CC1)c1ccc(N2CCN(Cc3cc(F)ccc3C(F)(F)F)CC2)nn1 [6-[4-(5-FLUORO-2-TRIFLUOROMETHYLBENZYL)PIPERAZIN-1-YL]PYRIDAZINE-3-CARBOXYLIC ACID (2-CYCLOPROPYLETHYL)AMIDE]
8	O=C(NCCC1CC1)c1ccc(N2CCN(Cc3ccc(Cl)cc3Cl)CC2)nn1 [6-[4-(2,4-DICHLOROBENZYL)-PIPERAZIN-1-YL]PYRIDAZINE-3-CARBOXYLIC ACID (2-CYCLOPROPYLETHYL)AMIDE]
7	O=C(NCCC1CC1)c1ccc(N2CCN(C(=O)c3ccoc3C(F)(F)F)CC2)nn1 [6-[4-(2-TRIFLUOROMETHYLFURAN-3-CARBONYL)PIPERAZIN-1-YL]PYRIDAZINE-3-CARBOXYLIC ACID (2-CYCLOPROPYLETHYL)AMIDE]
24	CC(c1ccccc1C(F)(F)F)N1CCN(c2ccc(C(=O)NCCC3CC3)nn2)CC1.Cl (centres unmarked) [6-{4-[1-(2-TRIFLUOROMETHYLPHENYL)ETHYL]PIPERAZIN-1-YL}-PYRIDAZINE-3-CARBOXYLIC ACID (2-CYCLOPROPYLETHYL)AMIDE HYDROCHLORIDE]
8	O=C(NCCC1CC1)c1ccc(N2CCN(Cc3cc(Cl)ccc3Cl)CC2)nn1 [6-[4-(2,5-DICHLOROBENZYL)PIPERAZIN-1-YL]PYRIDAZINE-3-CARBOXYLIC ACID (2-CYCLOPROPYLETHYL)AMIDE]
15	O=C(NCCc1ccccc1)Nc1ccc(N2CCN(C(=O)c3ccccc3C(F)(F)F)CC2)nn1
22	O=C(NCCC1CC1)c1ccc(N2CCN(C(=O)C3CCCCC3)CC2)nn1 [6-(4-CYCLOHEXANECARBONYLPIPERAZIN-1-YL)PYRIDAZINE-3-CARBOXYLIC ACID (2-CYCLOPROPYLETHYL)AMIDE]

Mouse Microsome 10% remaining @ 10 μM [%]	SMILES
73	O=C(NCCC1CC1)c1ccc(N2CCN(C(=O)C3(O)CC3)CC2)nn1 [6-[4-(1-HYDROXYCYCLOPROPANECARBONYL)PIPERAZIN-1-YL]PYRIDAZINE-3-CARBOXYLIC ACID (2-CYCLOPROPYLETHYL)AMIDE]
8	CC(C(=O)N1CCN(c2ccc(C(=O)NCCC3CC3)nn2)CC1)(C(F)(F)F)C(F)(F)F [6-[4-(3,3,3-TRIFLUORO-2-METHYL-2-TRIFLUOROMETHYLPROPIONYL)PIPERAZIN-1-YL]PYRIDAZINE-3-CARBOXYLIC ACID (2-CYCLOPROPYLETHYL)AMIDE]
6	CCCCCNC(=O)Nc1ccc(N2CCN(C(=O)c3ccccc3C(F)(F)F)CC2)nn1 [1-PENTYL-3-{6-[4-(2-TRIFLUOROMETHYLBENZOYL)PIPERAZIN-1-YL]PYRIDAZIN-3-YL}UREA]
0	O=C(NCCc1ccccc1)c1ccc(N2CCN(C(=O)c3ccccc3C(F)(F)F)CC2)nn1 [6-[4-(2-Trifluoromethylbenzoyl)piperazin-1-yl]pyridazine-3-carboxylic acid phenethylamide]
19	CC(C)CCNC(=O)c1ccc(N2CCN(C(=O)C(C)CC(F)(F)F)CC2)nn1 (centres unmarked) [6-[4-(4,4,4-TRIFLUORO-2-METHYLBUTYRYL)PIPERAZIN-1-YL]PYRIDAZINE-3-CARBOXYLIC ACID (3-METHYLBUTYL)AMIDE]
8	O=C(NCCC1CC1)c1ccc(N2CCN(C(=O)CC(O)(C(F)(F)F)C(F)(F)F)CC2)nn1 [6-[4-(4,4,4-TRIFLUORO-3-HYDROXY-3-TRIFLUOROMETHYLBUTYRYL)PIPERAZIN-1-YL]PYRIDAZINE-3-CARBOXYLIC ACID (2-CYCLOPROPYLETHYL)AMIDE]
36	CCC(CC)C(=O)N1CCN(c2ccc(C(=O)NCCC3CC3)nn2)CC1 [6-[4-(2-ETHYLBUTYRYL)PIPERAZIN-1-YL]PYRIDAZINE-3-CARBOXYLIC ACID (2-CYCLOPROPYLETHYL)AMIDE]
6	O=C(NCCC1CC1)c1ccc(N2CCN(C(=O)c3cc(C(F)(F)F)ccc3C(F)(F)F)CC2)nn1 [6-[4-(2,5-BIS-TRIFLUOROMETHYLBENZOYL)PIPERAZIN-1-YL]PYRIDAZINE-3-CARBOXYLIC ACID (2-CYCLOPROPYLETHYL)AMIDE]
69	COC(=O)C(CC(C)C)NC(=O)c1ccc(N2CCN(C(=O)c3ccccc3C(F)(F)F)CC2)nn1 (centres unmarked) [4-METHYL-2-({6-[4-(2-TRIFLUOROMETHYLBENZOYL)PIPERAZIN-1-YL]-PYRIDAZINE-3-CARBONYL}AMINO)PENTANOIC ACID METHYL ESTER]
13	CCCCNC(=O)Nc1ccc(N2CCN(C(=O)c3ccccc3C(F)(F)F)CC2)nn1 [1-BUTYL-3-{6-[4-(2-TRIFLUOROMETHYLBENZOYL)PIPERAZIN-1-YL]PYRIDAZIN-3-YL}UREA]
10	O=C(NCCC1CC1)c1ccc(N2CCN(C(=O)Cc3ccccc3C(F)(F)F)CC2)nn1 [6-{4-[2-(2-TRIFLUOROMETHYLPHENYL)ACETYL]PIPERAZIN-1-YL}PYRIDAZINE-3-CARBOXYLIC ACID (2-CYCLOPROPYLETHYL)AMIDE]
12	O=C(NCCC1CC1)c1ccc(N2CCN(Cc3ccc(F)cc3C(F)(F)F)CC2)nn1 [6-[4-(4-FLUORO-2-TRIFLUOROMETHYLBENZYL)-PIPERAZIN-1-YL]PYRIDAZINE-3-CARBOXYLIC ACID (2-CYCLOPROPYLETHYL)AMIDE]
5	O=C(NCCc1ccc(F)cc1F)c1ccc(N2CCN(C(=O)c3ccccc3C(F)(F)F)CC2)nn1 [6-[4-(2-TRIFLUOROMETHYLBENZOYL)PIPERAZIN-1-YL]PYRIDAZINE-3-CARBOXYLIC ACID [2-(2,4-DIFLUOROPHENYL)ETHYL]AMIDE]
14	O=C(NCCCc1ccc(F)cc1)Nc1ccc(N2CCN(C(=O)c3ccccc3C(F)(F)F)CC2)nn1 [1-[3-(4-Fluorophenyl)propyl]-3-{6-[4-(2-trifluoromethylbenzoyl)piperazin-1-yl]pyridazin-3-yl}urea]
82	O=C(Nc1ccc(F)cc1)Nc1ccc(N2CCN(C(=O)c3ccccc3C(F)(F)F)CC2)nn1 [1-(4-FLUOROPHENYL)-3-{6-[4-(2-TRIFLUOROMETHYLBENZOYL)PIPERAZIN-1-YL]-PYRIDAZIN-3-YL}UREA]
11	CC(C)CCNC(=O)c1ccc(N2CCN(C(=O)CC(C)C(F)(F)F)CC2)nn1 (centres unmarked) [6-[4-(4,4,4-TRIFLUORO-3-METHYLBUTYRYL)PIPERAZIN-1-YL]PYRIDAZINE-3-CARBOXYLIC ACID (3-METHYLBUTYL)AMIDE]

SMILES	Mouse Microsome 10% remaining @ 10 μM [%]
CC(C)(C)OC(=O)N1CCN(c2ccc(C(=O)NCCC3CC3)nn2)CC1 [4-[6-(2-CYCLOPROPYLETHYLCARAMOYL)PYRIDAZIN-3-YL]PIPERAZINE-1-CARBOXYLIC ACID T-BUTYL ESTER]	37
CC(C)CCNC(=O)c1ccc(N2CCN(C(=O)OC(C)(C)C)CC2)nn1 [4-[6-(3-METHYLBUTYLCARAMOYL)PYRIDAZIN-3-YL]PIPERAZINE-1-CARBOXYLIC ACID T-BUTYL ESTER]	11

Reference: patent US7964591B2, “Pyridazine derivatives and their use as therapeutic agents” (Novartis Pharma AG, priority 2003, dated 2011)
